Assay results: article PMC11410943 (Nature Communications, 2024)
Values after ≈ are worked out from the molar mass of the structure shown. Read-outs that look alike come from different tables or passages of the source.

How the values were obtained:
Escherichia coli = test: MIC
Pseudomonas aeruginosa = test: MIC
Klebsiella pneumoniae = test: MIC
Acinetobacter baumannii = test: MIC; details: IHMA/CARB-X MDR clinical isolates 2019, N=298
Enterobacter cloacae = test: MIC; details: IHMA/CARB-X MDR clinical isolates 2019, N=152
Citrobacter spp. = test: MIC
Proteus spp. = test: MIC
Serratia marcescens = test: MIC; details: IHMA/CARB-X MDR clinical isolates 2019, N=45
Morganella morganii = test: MIC; details: IHMA/CARB-X MDR clinical isolates 2019, N=42
[1] = test system: Stenotrophomonas maltophilia; test: MIC; details: IHMA/CARB-X MDR clinical isolates 2019, N=150
hERG K+ channel = hERG K+ channel (Homo sapiens, UniProt Q12809); test: hERG automated patch-clamp; type: cell-based
hERG K+ channel, sequence (Q12809 whole entry): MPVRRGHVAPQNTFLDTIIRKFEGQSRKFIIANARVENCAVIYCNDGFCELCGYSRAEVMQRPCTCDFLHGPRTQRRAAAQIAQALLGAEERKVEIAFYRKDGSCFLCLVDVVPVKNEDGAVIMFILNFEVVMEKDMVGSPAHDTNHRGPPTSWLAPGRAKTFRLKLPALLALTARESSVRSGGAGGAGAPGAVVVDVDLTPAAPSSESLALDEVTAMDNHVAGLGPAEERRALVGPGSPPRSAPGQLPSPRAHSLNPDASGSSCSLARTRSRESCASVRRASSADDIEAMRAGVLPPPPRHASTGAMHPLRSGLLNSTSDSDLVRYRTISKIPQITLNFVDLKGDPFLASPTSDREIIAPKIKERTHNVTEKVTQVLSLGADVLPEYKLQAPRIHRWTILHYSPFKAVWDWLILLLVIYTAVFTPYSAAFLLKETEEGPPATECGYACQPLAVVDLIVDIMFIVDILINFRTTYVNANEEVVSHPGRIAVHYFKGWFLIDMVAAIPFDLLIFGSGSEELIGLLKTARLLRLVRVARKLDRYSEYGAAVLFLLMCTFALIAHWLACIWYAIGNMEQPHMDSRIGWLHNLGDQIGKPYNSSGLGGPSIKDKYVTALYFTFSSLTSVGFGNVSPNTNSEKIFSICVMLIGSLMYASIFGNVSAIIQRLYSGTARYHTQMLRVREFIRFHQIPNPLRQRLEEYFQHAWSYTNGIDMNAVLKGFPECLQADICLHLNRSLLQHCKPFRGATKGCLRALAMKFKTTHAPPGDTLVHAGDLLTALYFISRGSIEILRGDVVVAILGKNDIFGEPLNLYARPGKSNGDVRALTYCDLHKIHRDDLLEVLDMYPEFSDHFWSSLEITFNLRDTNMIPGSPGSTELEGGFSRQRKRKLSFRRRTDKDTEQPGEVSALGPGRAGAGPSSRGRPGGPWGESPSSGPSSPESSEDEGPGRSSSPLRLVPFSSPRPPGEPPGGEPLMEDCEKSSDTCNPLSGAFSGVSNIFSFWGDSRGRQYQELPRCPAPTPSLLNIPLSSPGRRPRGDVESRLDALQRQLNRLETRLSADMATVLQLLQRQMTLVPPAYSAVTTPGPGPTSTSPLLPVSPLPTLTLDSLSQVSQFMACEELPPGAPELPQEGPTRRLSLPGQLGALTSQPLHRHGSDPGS

E. coli gyrase = E. coli gyrase (Escherichia coli, UniProt P0AES4); test: E. coli gyrase supercoiling inhibition; type: biochemical
E. coli gyrase, sequence (P0AES4 whole entry): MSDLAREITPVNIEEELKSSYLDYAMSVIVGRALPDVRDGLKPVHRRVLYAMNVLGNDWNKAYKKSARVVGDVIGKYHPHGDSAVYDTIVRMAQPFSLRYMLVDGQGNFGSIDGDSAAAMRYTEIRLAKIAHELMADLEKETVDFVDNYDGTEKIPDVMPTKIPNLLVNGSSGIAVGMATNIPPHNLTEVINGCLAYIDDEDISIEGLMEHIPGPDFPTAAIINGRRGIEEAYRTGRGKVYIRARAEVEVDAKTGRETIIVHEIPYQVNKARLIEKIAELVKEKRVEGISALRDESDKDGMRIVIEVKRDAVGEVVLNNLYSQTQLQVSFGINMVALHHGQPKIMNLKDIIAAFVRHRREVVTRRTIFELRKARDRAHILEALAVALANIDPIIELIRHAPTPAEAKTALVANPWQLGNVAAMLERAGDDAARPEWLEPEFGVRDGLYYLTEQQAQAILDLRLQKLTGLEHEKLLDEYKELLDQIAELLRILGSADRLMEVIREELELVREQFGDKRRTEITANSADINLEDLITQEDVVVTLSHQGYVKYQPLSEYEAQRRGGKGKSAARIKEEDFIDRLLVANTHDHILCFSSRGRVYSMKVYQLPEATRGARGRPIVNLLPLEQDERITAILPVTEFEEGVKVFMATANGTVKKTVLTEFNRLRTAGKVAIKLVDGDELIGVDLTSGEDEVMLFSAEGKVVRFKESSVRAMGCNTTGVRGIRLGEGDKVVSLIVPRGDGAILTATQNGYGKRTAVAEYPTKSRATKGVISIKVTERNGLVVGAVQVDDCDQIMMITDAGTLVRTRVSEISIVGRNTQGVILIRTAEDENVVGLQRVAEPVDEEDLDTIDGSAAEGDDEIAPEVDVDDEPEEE

E. coli topoisomerase IV = E. coli topoisomerase IV (Escherichia coli, UniProt P0AFI2); test: E. coli topoisomerase IV decatenation inhibition; type: biochemical
E. coli topoisomerase IV, sequence (P0AFI2 whole entry): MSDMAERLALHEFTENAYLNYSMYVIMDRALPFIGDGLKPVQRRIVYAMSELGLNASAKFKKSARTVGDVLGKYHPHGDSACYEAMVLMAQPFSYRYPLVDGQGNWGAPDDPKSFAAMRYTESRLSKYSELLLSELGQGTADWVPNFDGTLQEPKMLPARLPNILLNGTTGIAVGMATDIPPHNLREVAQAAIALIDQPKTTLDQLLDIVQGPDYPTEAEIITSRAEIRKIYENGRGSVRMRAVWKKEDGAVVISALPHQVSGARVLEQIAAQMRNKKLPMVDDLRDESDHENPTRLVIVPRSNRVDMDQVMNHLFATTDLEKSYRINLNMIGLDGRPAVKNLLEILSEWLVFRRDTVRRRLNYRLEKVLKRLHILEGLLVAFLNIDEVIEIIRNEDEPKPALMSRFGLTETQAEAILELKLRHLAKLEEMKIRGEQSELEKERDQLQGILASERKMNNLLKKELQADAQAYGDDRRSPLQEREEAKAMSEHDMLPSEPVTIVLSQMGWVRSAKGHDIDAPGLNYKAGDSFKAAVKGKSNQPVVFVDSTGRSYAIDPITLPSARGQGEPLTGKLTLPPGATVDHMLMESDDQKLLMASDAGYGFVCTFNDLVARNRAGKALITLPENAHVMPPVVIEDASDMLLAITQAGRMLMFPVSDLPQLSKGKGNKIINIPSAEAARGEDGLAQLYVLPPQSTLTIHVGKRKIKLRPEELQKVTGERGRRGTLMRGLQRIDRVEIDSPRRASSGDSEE
E. coli topoisomerase IV, sequence (P20083 whole entry partner): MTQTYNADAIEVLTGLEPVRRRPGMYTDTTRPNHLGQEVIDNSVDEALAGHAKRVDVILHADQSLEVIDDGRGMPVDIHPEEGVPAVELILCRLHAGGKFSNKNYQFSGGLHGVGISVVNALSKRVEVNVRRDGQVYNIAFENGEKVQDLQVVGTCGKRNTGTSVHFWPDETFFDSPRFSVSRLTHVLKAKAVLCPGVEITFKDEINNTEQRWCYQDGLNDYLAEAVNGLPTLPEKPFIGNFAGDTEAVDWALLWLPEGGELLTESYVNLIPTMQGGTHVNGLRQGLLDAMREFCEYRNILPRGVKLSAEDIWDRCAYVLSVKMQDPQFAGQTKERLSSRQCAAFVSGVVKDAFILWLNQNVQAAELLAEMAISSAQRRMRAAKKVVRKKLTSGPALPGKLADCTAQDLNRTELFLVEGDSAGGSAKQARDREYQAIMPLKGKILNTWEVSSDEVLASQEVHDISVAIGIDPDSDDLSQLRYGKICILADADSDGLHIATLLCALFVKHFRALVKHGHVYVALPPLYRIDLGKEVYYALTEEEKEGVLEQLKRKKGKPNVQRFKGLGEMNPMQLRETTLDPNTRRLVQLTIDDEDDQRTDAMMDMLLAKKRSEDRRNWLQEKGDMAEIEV

Neisseria gonorrhoeae = test: MIC; details: IHMA/CARB-X isolates 1997 to 2021, N=90
[2] = IHMA/CARB-X MDR clinical isolates 2019, N=300
[3] = IHMA/CARB-X MDR clinical isolates 2019, N=151
[4] = IHMA/CARB-X MDR clinical isolates 2019, N=152

## Meropenem-vaborbactam
Escherichia coli; [2]
  MIC90: ≤ 0.03 µg/mL
Pseudomonas aeruginosa; [2]
  MIC90: 32 µg/mL
Klebsiella pneumoniae; [2]
  MIC90: 16 µg/mL
Acinetobacter baumannii
  MIC90: > 32 µg/mL
Enterobacter cloacae
  MIC90: 0.25 µg/mL
Citrobacter spp.; [3]
  MIC90: ≤ 0.03 µg/mL
Proteus spp.; [4]
  MIC90: 0.125 µg/mL
Serratia marcescens
  MIC90: 0.125 µg/mL
Morganella morganii
  MIC90: 0.06 µg/mL
[1]
  MIC90: > 32 µg/mL

## NCC[C@H](O)C(=O)N[C@@H]1C[C@H](N)[C@@H](O[C@H]2O[C@H](CN)[C@@H](O)[C@H](O)[C@H]2O)[C@H](O)[C@H]1O[C@H]1O[C@H](CO)[C@@H](O)[C@H](N)[C@H]1O [Amikacin]
Escherichia coli; Escherichia coli
  MIC90: 8 µg/mL (≈ 13.7 µM)
Pseudomonas aeruginosa; Pseudomonas aeruginosa
  MIC90: 64 µg/mL (≈ 109 µM)
Klebsiella pneumoniae; Klebsiella pneumoniae
  MIC90: 32 µg/mL (≈ 54.6 µM)
Acinetobacter baumannii; Acinetobacter baumannii
  MIC90: > 64 µg/mL
Enterobacter cloacae; Enterobacter cloacae
  MIC90: 4 µg/mL (≈ 6.83 µM)
Citrobacter spp.; Citrobacter
  MIC90: 4 µg/mL (≈ 6.83 µM)
Proteus spp.
  MIC90: 4 µg/mL (≈ 6.83 µM)
Morganella morganii; Morganella morganii
  MIC90: 8 µg/mL (≈ 13.7 µM)

## CN(C)[C@@H]1C(O)=C(C(N)=O)C(=O)[C@@]2(O)C(O)=C3C(=O)c4c(O)c(NC(=O)CN5CCCC5)cc(F)c4C[C@H]3C[C@@H]12 [Eravacycline]
Escherichia coli; Escherichia coli
  MIC90: 0.25 µg/mL (≈ 0.448 µM)
Klebsiella pneumoniae; Klebsiella pneumoniae
  MIC90: 1 µg/mL (≈ 1.79 µM)
Citrobacter spp.; Citrobacter
  MIC90: 0.5 µg/mL (≈ 0.895 µM)
Proteus spp.
  MIC90: 2 µg/mL (≈ 3.58 µM)
Morganella morganii; Morganella morganii
  MIC90: 1 µg/mL (≈ 1.79 µM)

## Cn1c(=O)cnc2ccc(F)c(CCNC[C@H]3CN(c4cnc5c(n4)NC(=O)CO5)C(=O)O3)c21 [Compound 7, 6-[(5S)−5-[[[2-(6-Fluoro-3,4-dihydro-4-methyl-3-oxo-5-quinoxalinyl)ethyl]amino]methyl]−2-oxo-3-oxazolidinyl]−2H-pyrazino[2,3-b]−1,4-oxazin-3(4H)-one]
hERG K+ channel
  increase in hERG IC50 vs compound 5: 4 fold

## CN1C(=O)Cc2ccc(F)c(CCNCC[C@H]3CN(c4ccc5c(n4)NC(=O)CO5)C(=O)O3)c21 [Compound 3, 6-[(5S)−5-[2-[[2-(6-fluoro-2,3-dihydro-1-methyl-2-oxo-1H-indol-7-yl)ethyl]amino]ethyl]−2-oxo-3-oxazolidinyl]−2H-pyrido[3,2-b]−1,4-oxazin-3(4H)-one]
E. coli gyrase
  improvement in gyrase supercoiling and topoIV decatenation IC50 over compound 1: > 100 fold
E. coli topoisomerase IV
  IC50: 360 nM

## Colistin
Escherichia coli; [2]
  MIC90: 0.25 µg/mL
Pseudomonas aeruginosa; [2]
  MIC90: 1 µg/mL
Klebsiella pneumoniae; [2]
  MIC90: 0.5 µg/mL
Acinetobacter baumannii
  MIC90: 0.5 µg/mL
Enterobacter cloacae
  MIC90: 2 µg/mL
Citrobacter spp.; [3]
  MIC90: 0.5 µg/mL
Proteus spp.; [4]
  MIC90: > 32 µg/mL
Serratia marcescens
  MIC90: > 32 µg/mL
Morganella morganii
  MIC90: 64 µg/mL
[1]
  MIC90: > 32 µg/mL

## C[C@H]1[C@H](NC(=O)/C(=N\OC(C)(C)C(=O)O)c2csc(N)n2)C(=O)N1S(=O)(=O)O [Aztreonam]
Escherichia coli; Escherichia coli
  MIC90: > 64 µg/mL
Pseudomonas aeruginosa; Pseudomonas aeruginosa
  MIC90: > 16 µg/mL
Klebsiella pneumoniae; Klebsiella pneumoniae
  MIC90: > 64 µg/mL
Citrobacter spp.; Citrobacter
  MIC90: 64 µg/mL (≈ 147 µM)
Proteus spp.
  MIC90: 0.5 µg/mL (≈ 1.15 µM)
Morganella morganii; Morganella morganii
  MIC90: 16 µg/mL (≈ 36.7 µM)

## COCC1=C(C(=O)O)N2C(=O)[C@@H](NC(=O)/C(=N\OC)c3csc(N)n3)[C@H]2SC1 [Cefpodoxime]
Escherichia coli; Escherichia coli
  MIC90: > 32 µg/mL
Klebsiella pneumoniae; Klebsiella pneumoniae
  MIC90: > 32 µg/mL
Enterobacter cloacae; Enterobacter cloacae
  MIC90: 64 µg/mL (≈ 150 µM)
Citrobacter spp.; Citrobacter
  MIC90: > 32 µg/mL
Proteus spp.
  MIC90: > 32 µg/mL
Morganella morganii; Morganella morganii
  MIC90: > 32 µg/mL

## CO/N=C(\C(=O)N[C@@H]1C(=O)N2C(C(=O)O)=C(CSc3nc(=O)c(=O)[nH]n3C)CS[C@H]12)c1csc(N)n1 [Ceftriaxone]
Neisseria gonorrhoeae
  MIC90: 0.06 µg/mL (≈ 0.108 µM)

## Cn1c(=O)ccc2ccc(F)c(CCNC[C@H]3CN(c4ncc5c(n4)NC(=O)CO5)C(=O)O3)c21 [Compound 6, 2-[(5S)−5-[[[2-(7-Fluoro-1,2-dihydro-1-methyl-2-oxo-8-quinolinyl)ethyl]amino]methyl]−2-oxo-3-oxazolidinyl]−6H-pyrimido[5,4-b][1,4]oxazin-7(8H)-one]
hERG K+ channel
  increase in hERG IC50 vs compound 5: > 10 fold

## Piperacillin/Tazobactam
Pseudomonas aeruginosa; [2]
  MIC90: 128 µg/mL
Acinetobacter baumannii
  MIC90: > 128 µg/mL
Enterobacter cloacae
  MIC90: 0.06 µg/mL
[1]
  MIC90: > 128 µg/mL

## CN1C(=O)Cc2ccc(F)c(CCNC[C@H]3CN(c4ccc5c(n4)NC(=O)CO5)C(=O)O3)c21 [Compound 4, (S)−6-(5-(((2-(6-fluoro-1-methyl-2-oxoindolin-7-yl)ethyl)amino)methyl)−2-oxooxazolidin-3-yl)−2H-pyrido[3,2-b] [1,4] oxazin-3(4H)-one]
E. coli gyrase
  IC50: 36 nM
E. coli topoisomerase IV
  IC50: 57 nM

## Aztreonam/Avibactam
Escherichia coli; [2]
  MIC90: 0.125 µg/mL
Pseudomonas aeruginosa; [2]
  MIC90: > 16 µg/mL
Klebsiella pneumoniae; [2]
  MIC90: 0.25 µg/mL
Enterobacter cloacae
  MIC90: 0.5 µg/mL
Citrobacter spp.; [3]
  MIC90: 0.25 µg/mL
Proteus spp.; [4]
  MIC90: ≤ 0.016 µg/mL
Serratia marcescens
  MIC90: 0.25 µg/mL
Morganella morganii
  MIC90: 0.06 µg/mL
